Article PMC11653702, “Targeting the SPC25/RIOK1/MYH9 Axis to Overcome Tumor Stemness and Platinum Resistance in Epithelial Ovarian Cancer” (Advanced Science, 2024)

Legend:
[1] = system: COV644 cells; experiment: Tumor sphere formation, XAV939, SPC25-overexpressing COV644; type: cell-based, human; settings: for Log(negative ratio, 2) / negative ratio / number of negative wells: XAV939 100uM, 24 wells
[2] = system: OVCAR3 cells; experiment: Tumor sphere formation, XAV939, SPC25-overexpressing OVCAR3; type: cell-based, human; settings: for negative ratio / number of negative wells: XAV939 100uM, 24 wells
[3] = system: patients with EOC; set-up: method as in 2 sources, ref 59 = [59]; PMID 22204724; doi:10.1056/NEJMoa1104390; 59 R. A. Burger , M. F. Brady , M. A. Bookman , G. F. Fleming , B. J. Monk , H. Huang , R. S. Mannel , H. D. Homesley , J. Fowler , B. E. Greer , M. Boente , M. J. Birrer , S. X. Liang , G. G. Oncolog ||| ref 61, 62, 63 = [61]; PMID 25481791; doi:10.1016/S1470-2045(14)71135-0; 61 A. M. Oza , D. Cibula , A. O. Benzaquen , C. Poole , R. H. Mathijssen , G. S. Sonke , N. Colombo , J. Spacek , P. Vuylsteke , H. Hirte , S. Mahner , M. Plante , B. Schmalfeldt , H. Mackay , J. Rowb || [62]; PMID 34485111; doi:10.3389/fonc.2021.638295; 62 N. Ren , L. Zhang , J. Yu , S. Guan , X. Dai , L. Sun , M. Ying , Front. Oncol. 2021 , 11 , 638295 . 34485111 10.3389/fonc.2021.638295 PMC8414886 || [63]; PMID 27663600; doi:10.1158/1078-0432.CCR-16-1546; 63 J. M. Lee , C. J. Peer , M. Yu , L. Amable , N. Gordon , C. M. Annunziata , N. Houston , A. K. Goey , T. M. Sissung , B. Parker , L. Minasian , V. L. Chiou , R. F. Murphy , B. C. Widemann , W. D. F; settings: cited from earlier work; for PFS or OS during chemotherapy: PARP inhibitors during chemotherapy; for maintenance treatment benefit for patient survival: PARP inhibitors, maintenance treatment of EOC

**Q.** What does the source list for `Oc1nc(-c2ccc(C(F)(F)F)cc2)nc2c1CSCC2` [XAV939]?
**A.** enhanced stemness attributable to SPC25 overexpression (tumor sphere formation) ([1]; SPC25-overexpressing COV644): effectively mitigated the enhanced stemness; Log(negative ratio, 2) ([1]; COV644-SPC25, 50 cells): 0; negative ratio ([1]; COV644-SPC25, 50 cells): 1; number of negative wells ([1]; COV644-SPC25, 50 cells): 24; Log(negative ratio, 2) ([1]; COV644-SPC25, 100 cells): 0; negative ratio ([1]; COV644-SPC25, 100 cells): 1; number of negative wells ([1]; COV644-SPC25, 100 cells): 24; number of negative wells ([1]; COV644-SPC25, 200 cells): 23; number of negative wells ([1]; COV644-SPC25, 400 cells): 23; number of negative wells ([1]; COV644-SPC25, 800 cells): 21; Log(negative ratio, 2) ([1]; COV644-Vector, 50 cells): 0; negative ratio ([1]; COV644-Vector, 50 cells): 1; number of negative wells ([1]; COV644-Vector, 50 cells): 24; Log(negative ratio, 2) ([1]; COV644-Vector, 100 cells): 0; negative ratio ([1]; COV644-Vector, 100 cells): 1; number of negative wells ([1]; COV644-Vector, 100 cells): 24; Log(negative ratio, 2) ([1]; COV644-Vector, 200 cells): 0; negative ratio ([1]; COV644-Vector, 200 cells): 1; number of negative wells ([1]; COV644-Vector, 200 cells): 24; number of negative wells ([1]; COV644-Vector, 400 cells): 23; number of negative wells ([1]; COV644-Vector, 800 cells): 22; enhanced stemness attributable to SPC25 overexpression (tumor sphere formation) ([2]; SPC25-overexpressing OVCAR3): effectively mitigated the enhanced stemness; negative ratio ([2]; OVCAR3-SPC25, 50 cells): 1; number of negative wells ([2]; OVCAR3-SPC25, 50 cells): 24; negative ratio ([2]; OVCAR3-SPC25, 100 cells): 1; number of negative wells ([2]; OVCAR3-SPC25, 100 cells): 24; negative ratio ([2]; OVCAR3-SPC25, 200 cells): 0.9167; number of negative wells ([2]; OVCAR3-SPC25, 200 cells): 22; negative ratio ([2]; OVCAR3-SPC25, 400 cells): 0.875; number of negative wells ([2]; OVCAR3-SPC25, 400 cells): 21; negative ratio ([2]; OVCAR3-SPC25, 800 cells): 0.8333; number of negative wells ([2]; OVCAR3-SPC25, 800 cells): 20; negative ratio ([2]; OVCAR3-Vector, 50 cells): 1; number of negative wells ([2]; OVCAR3-Vector, 50 cells): 24; negative ratio ([2]; OVCAR3-Vector, 100 cells): 1; number of negative wells ([2]; OVCAR3-Vector, 100 cells): 24; negative ratio ([2]; OVCAR3-Vector, 200 cells): 0.9583; number of negative wells ([2]; OVCAR3-Vector, 200 cells): 23; negative ratio ([2]; OVCAR3-Vector, 400 cells): 0.9167; number of negative wells ([2]; OVCAR3-Vector, 400 cells): 22; negative ratio ([2]; OVCAR3-Vector, 800 cells): 0.8333; number of negative wells ([2]; OVCAR3-Vector, 800 cells): 20

**Q.** What does the source list for `O=C(c1cc(Cc2n[nH]c(=O)c3ccccc23)ccc1F)N1CCN(C(=O)C2CC2)CC1` [olaparib]?
**A.** PFS or OS during chemotherapy [3]: marginal PFS or OS enhancements; maintenance treatment benefit for patient survival [3]: marked benefits

**Q.** Which results are given for `NC(=O)c1cccc2cn(-c3ccc([C@@H]4CCCNC4)cc3)nc12` [niraparib]?
**A.** PFS or OS during chemotherapy [3]: marginal PFS or OS enhancements; maintenance treatment benefit for patient survival [3]: marked benefits

**Q.** Which PFS prolongation ([3]; added to platinum-based regimens, recurrent patients with EOC, compared with controls) does the source give for “bevacizumab: biological agent combined with platinum-based regimens” here?
**A.** 3–4 months
